Like-named read-outs stand apart in the source and are kept apart here.
Key:
[1] = Solubility by nephelometry (water, buffer pH 7.4); assay type: physicochemical; conditions: for logSpH 7.4: buffer pH 7.4; for logSH2O: water
Protocol: Compounds’ solubility was measured by the NEPHELOstar microplate instrument (BMG Labtech, Offenburg, Germany). Stock solutions were prepared by dissolving the tested compounds in ultrapure water or sodium phosphate buffer (pH 7.4) to obtain a concentration of 160 and 1,000 μg/mL. Each stock solution was sonicated at full power by Hielscher UP100H needle ultrasonic processor (Teltow, Germany) before loading into NEPHELOstar instrument injector A. Ultrapure water or sodium phosphate buffer was loaded into injector B. Compound was diluted in 48 wells in 0–160 or 0–1,000 μg/mL range and subsequently shook for 30 s. Each well was scanned with 80% laser power in matrix 3 × 3, beam width 2 mm, and obtained data were evaluated in GraphPad Prism 7.03 (GraphPad Software, San Diego, CA, USA) using segmental linear regression.

[2] = tested on: mTORC1 substrate p70 S6 kinase (Thr389 phosphorylation); test: Immunoblot of phospho-p70 S6K (Thr389), mTORC1 activity in cells; assay type: cell-based, human; conditions: for effect on Thr389 S6K phosphorylation / effect on p70 S6K phosphorylation: 100 μM
[3] = tested on: pro-inflammatory cytokines of SASP; test: Secretion of pro-inflammatory cytokines (SASP) by senescent cells; assay type: cell-based, human; conditions: 50 μM, 24 h; for all detectable cytokines (IL-1α, IL-1β, IL-6, IL-8, IL-27, MCP-1, TNFα): TMZ-induced U87 senescent cells
Protocol: To determine the secretion of selected inflammatory cytokines into culture media, cell cultures were exposed to tested compounds (50 μM) for 24 h. Then the culture medium was removed, cells were washed three times with 1 mL PBS, and a fresh medium without FBS was added for 24 h. Detection of cytokines in conditioned culture media was done by Human Inflammation 11-Plex Panel: IFNγ, IL-1α, IL-1β, IL-6, IL-8, IL-10, IL-12p70, IL-27, IP-10, MCP-1, and TNFα (AimPlex Biosciences, Inc.) using a BD FACSVerseTM flow cytometer (BD Biosciences, Franklin Lakes, NJ, USA) according to manufacturer’s protocol. Data were analyzed using FlowJo 10 software (FlowJo LLC, Ashland, OR, USA).
Importantly, compound 3 decreased IL-1α, IL-8, and MCP-1 consistently in all tested senescence models. The effect of compound 3 on IL-6 was variable.

[4] = Shake-flask partition coefficient logP and distribution coefficient logD (pH 7.4); assay type: physicochemical; conditions: for logD: n-octanol/sodium phosphate buffer pH 7.4; for logP: n-octanol/water
Protocol: Before the initiation of the intended experiments, all solvents were mutually saturated at 21°C. […] For saturation, large stock bottles containing n-octanol and 12% of water/buffer or water/buffer and 12% of n-octanol were shaken for 30 mins on a mechanical shaker and subsequently left to stand on the bench overnight until the phases separated. Approximately 0.50 mg of tested substance was added to the test vessels alongside with 1:1 volume ratio of saturated solvents (250 μL). The test vessels were shaken on the mechanical shaker (Multi Reax, Heidolph Instruments, Schwabach, Germany) for 30 min at the highest speed and then centrifuged for phase separation (16.873 × g for 5 min; Eppendorf 5418 Microcentrifuge, Prague, Czech Republic). Both organic and aqueous phases were sampled for LC-MS analysis. UHPLC-DAD-MS (UHPLC Infinity II 1290, detection by DAD and QqQ 6470; Agilent Technologies, CA, USA; separation on Arion C18 polar column 100 × 2.1 mm, 2.1 μm; Chromservis, Czech Republic) was used for determination of the exact concentration of tested substances. The total quantity of substance (in both phases) was used for logP/logD values calculation.

C57BL/6 (B6) male mice [5] = test: In vivo tolerability study (behaviour, signs of toxicity, body weight)
Protocol: C57BL/6 (B6) male mice, 8–12 weeks old, were obtained from the Institute of Molecular Genetics, Prague, Czech Republic. Experimental protocols were approved by the Institutional Animal Care Committee of the Institute of Molecular Genetics, Prague.
Compounds were dissolved in 20 μL DMSO and completed into 200 μL with corn oil.
During the experiments, mice behavior and possible apparent signs of toxicity were monitored daily. The body weights were determined on days 0, 4, and 8. On day 8, blood (25 μL) was withdrawn using a capillary pipette containing anticoagulant (heparin) from the retroorbital sinus into EDTA-containing tubes. Basic hematological parameters were measured using the Mindray BC-5300 Vet. Mice were then killed, autopsied, and abdominal organs (spleen, liver, and kidney) were removed for visual examination and imaging by a digital camera. Single-cell suspensions from the spleens were prepared by homogenization through a cell strainer (70 μm; BD Biosciences, San Jose, CA, USA). Erythrocytes were osmotically lysed using ammonium chloride-potassium lysis buffer, and the cell suspensions were washed three times in the RPMI-1640 medium and used for further analysis by flow cytometry for selected cell populations.

C57BL/6 (B6) male mice [6] = test: Histopathological analysis of spleen, kidney and liver; assay type: in vivo
Protocol: Spleen, kidney, and liver tissue samples from the control and treated animals were fixed in 4% formaldehyde and embedded into paraffin. The analysis and evaluation were performed at the Czech Centre for Phenogenomics, Institute of Molecular Genetics of the CAS, Vestec, using Leica ASP6025 automatic vacuum tissue processor for tissue processing, Leica EG1150 H + C embedding station for embedding, and Leica RM2255 rotary microtome for sectioning (2 μm sections). Standard haematoxylin and eosin (HE) descriptive histopathological staining was done using Leica ST5020 + CV5030 stainer and coverslipped.

[7] = Dissociation constants by spectrophotometric titration; assay type: physicochemical; conditions: 20°C; for pKa: ultrapure water
Protocol: The spectrophotometric titration was used for dissociation constants’ determination, utilizing spectrophotometer Agilent Cary-60 (Agilent Technologies, CA, USA), pH meter WTW InoLab_IDS Multi 9430 (WTW, Czech Republic), and pH electrode SenTix® Mic (WTW, Czech Republic). Data were analyzed by GraphPadPrism 8.0 software (GraphPad Software, CA, USA). The analyzed samples were prepared by adding 20 μL of compound stock solution (2 mg/mL) and 20 μL of 0.1 M hydrochloric acid into the cuvette with ultrapure water (total volume 3.5 mL). The samples were titrated by 0.1 M sodium hydroxide at 20°C while acquiring absorption spectra (190–500 nm) at different pH values. Absorbance at the chosen wavelength was plotted as a function of pH. The inflection point in the given plot was used for pKa value determination.

[8] = sodium phosphate buffer pH 7.4, nephelometry
[9] = all tested senescence models (DIS-BJ, IR-RPE-1, TMZ-U87)
[10] = p.o. 5, 25 and 50 mg/kg body weight, days 0, 3, 5
[11] = mice, all three doses (5, 25, 50 mg/kg p.o.)

## Nc1ccc(C(=O)Nc2cccc(-c3c[nH]c4ncccc34)c2)cc1O [Compound 3, N-(3-(1H-pyrrolo[2,3-b]pyridin-3-yl)phenyl)-4-amino-3-hydroxybenzamide]
[1]; aqueous buffer, sodium phosphate buffer pH 7.4, nephelometry, read-out: Sol. (buffer 7.4)
  solubility kinetic at 30 s: < 6 µg/mL
[1]
  logSpH 7.4: <−4.76
  logSH2O: <−4.76
[1]; [8]
  Sol. (buffer 7.4): lower than 6 μg/mL
[1]; ultrapure water, nephelometry
  Sol. (H2O): lower than 6 μg/mL
[1]; ultrapure water, nephelometry, read-out: Sol. (H2O)
  solubility kinetic at 30 s: < 6 µg/mL
[2]; BJ cells, 1 and 5 h
  effect on Thr389 S6K phosphorylation: inhibitory effect
[2]; DU-145, 1 and 5 h
  effect on Thr389 S6K phosphorylation: no effect
[2]; H1299, 1 and 5 h
  effect on Thr389 S6K phosphorylation: Marked but transient inhibition
[2]; MDA-MB-231, 1 and 5 h
  effect on Thr389 S6K phosphorylation: Marked but transient inhibition
[2]; RPE-1, 1 and 5 h
  effect on Thr389 S6K phosphorylation: no effect
[2]; T98, 1 and 5 h
  effect on Thr389 S6K phosphorylation: Marked but transient inhibition
[2]; U87, after 1 h, reasonable level also after 5 h
  effect on Thr389 S6K phosphorylation: most potent inhibitory effect
[2]; docetaxel-induced senescent BJ, 1 and 5 h
  effect on p70 S6K phosphorylation: robust effect
[2]; ionizing radiation-induced senescent RPE-1, 1 and 5 h
  effect on p70 S6K phosphorylation: less pronounced effect
[2]; proliferating BJ cells, 0–100 μM, after 5 h-long exposure
  concentration from which inhibition of S6K phosphorylation is apparent: 6.25 µM
[2]; temozolomide-induced senescent U87, 1 and 5 h
  effect on p70 S6K phosphorylation: less pronounced effect
[3]; DIS-BJ senescent cells
  IL-6 level in conditioned medium: apparent decrease
[3]; TMZ-U87 senescent cells
  IL-6 level in conditioned medium: apparent decrease
[3]
  all detectable cytokines (IL-1α, IL-1β, IL-6, IL-8, IL-27, MCP-1, TNFα): suppressed
[3]; [9]
  IL-1α level in conditioned medium: decreased
  IL-8 level in conditioned medium: decreased
  MCP-1 level in conditioned medium: decreased
[4]; n-octanol/sodium phosphate buffer, pH 7.4, shake-flask, read-out: logD
  logD: 2.15 ± 0.02
[4]; shake-flask, read-out: logP
  logP: 2.08 ± 0.07
C57BL/6 (B6) male mice [5]; 50 mg/kg body weight, perorally
  symptoms of intoxication: did not exert any symptoms of intoxication
C57BL/6 (B6) male mice [5]; [10]
  changes in mice behavior and body weights: no changes
  signs of whole body or organ toxicities: no apparent signs
C57BL/6 (B6) male mice [6]; mice, 25 mg/kg p.o., HE, 100×
  histopathology, spleen: mild extramedullar hematopoiesis
C57BL/6 (B6) male mice [6]; mice, 25 mg/kg p.o., HE, 200×
  histopathology, kidneys: narrowing of Bowman’s space (arrow), focal tubular atrophy
C57BL/6 (B6) male mice [6]; mice, 50 mg/kg p.o., HE, 200×
  histopathology, kidneys: multifocal mild tubular damage
C57BL/6 (B6) male mice [6]; mice, 50 mg/kg p.o., HE, 400×
  histopathology, liver: rare incipient centrilobular necrosis
C57BL/6 (B6) male mice [6]; mice, 5, 25, 50 mg/kg p.o., dose-dependent
  histopathology, liver: minimal evidence of damage
C57BL/6 (B6) male mice [6]; mice, 5, 25, 50 mg/kg p.o., proportional to dose
  histopathology, kidneys: most pronounced pathological changes
C57BL/6 (B6) male mice [6]; [11]
  histopathology, spleen: varying degrees of extramedullary haematopoiesis
[7]; read-out: pKa1
  pKa: 3.6 ± 0.29
[7]; read-out: pKa2
  pKa: 7.91 ± 0.15

## CC(C)n1nc(-c2cc3cc(O)ccc3[nH]2)c2c(N)ncnc21 [Torkinib, torkinib]
[1]
  logSpH 7.4: <−4.71
  logSH2O: <−4.71
[1]; listed as torkinib
  logSpH 7.4: < −4.60
  logSH2O: < −4.60
[1]; [8]
  Sol. (buffer 7.4): <6 µg/mL
[1]; sodium phosphate buffer pH 7.4, nephelometry, listed as torkinib
  Sol. (buffer 7.4): lower than 6 μg/mL
[1]; ultrapure water, nephelometry
  Sol. (H2O): <6 µg/mL
[1]; ultrapure water, nephelometry, listed as torkinib
  Sol. (H2O): lower than 6 μg/mL
[2]; BJ cells, 1 and 5 h
  effect on Thr389 S6K phosphorylation: inhibitory effect
[3]
  all detectable cytokines (IL-1α, IL-1β, IL-6, IL-8, IL-27, MCP-1, TNFα): suppressed
[4]; shake-flask
  logD: 2.75 ± 0.06
  logP: 2.65 ± 0.02
C57BL/6 (B6) male mice [5]; [10]
  signs of whole body or organ toxicities: no apparent signs
C57BL/6 (B6) male mice [6]; [11]
  histopathology, spleen: minimal to moderate signs of extramedullary haematopoiesis
[7]
  pKa1: 3.96 ± 0.02
  pKa2: 10.37 ± 0.18

From publication PMC9767416, “Discovery of small molecule mechanistic target of rapamycin inhibitors as anti-aging and anti-cancer therapeutics” (Frontiers in Aging Neuroscience, 2022)
